In ChEMBL document CHEMBL3991601, “The target landscape of clinical kinase drugs” (Science, 2017):
Activity calls are given as the source filed them.

Experiments:
[1] = molecular target: Dual specificity testis-specific protein kinase 1 (Homo sapiens, UniProt Q15569)
Ephrin type-A receptor 7 = Ephrin type-A receptor 7 (Homo sapiens, UniProt Q15375)
[2] = molecular target: T1, Thyroid hormone receptor-associated protein 3 (Homo sapiens, UniProt Q9Y2W1)
T1 sequence (Q9Y2W1 whole entry): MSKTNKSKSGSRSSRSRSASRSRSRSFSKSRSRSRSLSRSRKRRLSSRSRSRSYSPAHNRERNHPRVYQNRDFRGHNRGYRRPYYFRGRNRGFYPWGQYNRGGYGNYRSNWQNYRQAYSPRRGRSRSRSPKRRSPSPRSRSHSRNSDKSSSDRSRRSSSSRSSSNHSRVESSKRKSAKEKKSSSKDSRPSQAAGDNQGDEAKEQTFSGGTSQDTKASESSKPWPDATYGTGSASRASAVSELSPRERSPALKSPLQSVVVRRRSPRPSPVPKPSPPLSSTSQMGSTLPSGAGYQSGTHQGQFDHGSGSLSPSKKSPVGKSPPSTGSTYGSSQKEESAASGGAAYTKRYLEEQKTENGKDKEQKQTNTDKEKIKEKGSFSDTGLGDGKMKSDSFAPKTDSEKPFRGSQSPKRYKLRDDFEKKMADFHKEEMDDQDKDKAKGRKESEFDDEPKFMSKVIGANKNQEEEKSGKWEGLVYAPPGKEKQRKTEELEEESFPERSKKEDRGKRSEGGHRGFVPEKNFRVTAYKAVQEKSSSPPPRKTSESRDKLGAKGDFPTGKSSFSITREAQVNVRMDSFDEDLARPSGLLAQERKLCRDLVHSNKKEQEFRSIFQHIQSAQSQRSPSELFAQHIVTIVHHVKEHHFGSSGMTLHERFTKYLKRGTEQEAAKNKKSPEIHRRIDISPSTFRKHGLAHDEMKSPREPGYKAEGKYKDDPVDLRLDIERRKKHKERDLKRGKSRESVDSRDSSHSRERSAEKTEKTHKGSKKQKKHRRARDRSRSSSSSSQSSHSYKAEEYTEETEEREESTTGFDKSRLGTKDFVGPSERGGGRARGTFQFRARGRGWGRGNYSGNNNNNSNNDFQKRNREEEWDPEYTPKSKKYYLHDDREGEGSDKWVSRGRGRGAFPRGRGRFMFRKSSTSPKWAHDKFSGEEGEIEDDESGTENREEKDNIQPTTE

Myosin-10 = Myosin-10 (Homo sapiens, UniProt P35580)
[3] = molecular target: T2, Eukaryotic translation initiation factor 5B (Homo sapiens, UniProt O60841)
T2 sequence (O60841 whole entry): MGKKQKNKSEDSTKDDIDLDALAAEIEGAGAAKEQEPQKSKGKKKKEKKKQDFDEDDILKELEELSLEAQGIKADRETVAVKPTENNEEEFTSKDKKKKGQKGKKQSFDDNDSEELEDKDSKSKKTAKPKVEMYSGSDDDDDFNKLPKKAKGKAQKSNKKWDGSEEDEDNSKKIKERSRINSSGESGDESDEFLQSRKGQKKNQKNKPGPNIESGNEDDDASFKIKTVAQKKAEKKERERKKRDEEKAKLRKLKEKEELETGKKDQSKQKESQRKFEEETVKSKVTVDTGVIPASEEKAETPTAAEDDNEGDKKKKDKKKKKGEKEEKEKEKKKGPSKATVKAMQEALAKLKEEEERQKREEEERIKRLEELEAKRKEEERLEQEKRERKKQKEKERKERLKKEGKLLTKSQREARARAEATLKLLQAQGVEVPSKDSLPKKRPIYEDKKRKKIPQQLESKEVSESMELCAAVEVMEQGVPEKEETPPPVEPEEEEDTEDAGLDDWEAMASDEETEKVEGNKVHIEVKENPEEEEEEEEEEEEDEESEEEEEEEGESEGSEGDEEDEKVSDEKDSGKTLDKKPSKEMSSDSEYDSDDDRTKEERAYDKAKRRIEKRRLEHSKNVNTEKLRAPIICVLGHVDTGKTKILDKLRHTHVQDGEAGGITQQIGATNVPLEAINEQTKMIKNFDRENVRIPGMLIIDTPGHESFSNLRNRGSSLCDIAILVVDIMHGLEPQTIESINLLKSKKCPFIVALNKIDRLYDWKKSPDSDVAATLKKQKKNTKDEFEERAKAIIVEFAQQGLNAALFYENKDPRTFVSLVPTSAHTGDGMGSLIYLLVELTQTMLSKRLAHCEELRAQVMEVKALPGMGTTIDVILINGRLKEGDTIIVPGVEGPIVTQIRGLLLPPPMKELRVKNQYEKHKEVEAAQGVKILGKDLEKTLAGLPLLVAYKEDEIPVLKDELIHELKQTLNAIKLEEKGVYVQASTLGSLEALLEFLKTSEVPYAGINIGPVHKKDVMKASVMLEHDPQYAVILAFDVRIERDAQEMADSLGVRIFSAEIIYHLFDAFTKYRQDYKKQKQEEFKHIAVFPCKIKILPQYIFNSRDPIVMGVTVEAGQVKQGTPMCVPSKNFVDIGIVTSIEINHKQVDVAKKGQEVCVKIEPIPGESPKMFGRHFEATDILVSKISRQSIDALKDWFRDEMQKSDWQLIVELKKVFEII

[4] = molecular target: Serine/threonine-protein kinase PLK1 (Homo sapiens, UniProt P53350)
[5] = molecular target: Serine/threonine-protein kinase N3 (Homo sapiens, UniProt Q6P5Z2)
Obg-like ATPase 1 = Obg-like ATPase 1 (Homo sapiens, UniProt Q9NTK5)

Measured: Kd
Also: in the data inactive means no Kd found up to 30 µM.

Serine/threonine-protein kinase N3, sequence (Q6P5Z2 whole entry): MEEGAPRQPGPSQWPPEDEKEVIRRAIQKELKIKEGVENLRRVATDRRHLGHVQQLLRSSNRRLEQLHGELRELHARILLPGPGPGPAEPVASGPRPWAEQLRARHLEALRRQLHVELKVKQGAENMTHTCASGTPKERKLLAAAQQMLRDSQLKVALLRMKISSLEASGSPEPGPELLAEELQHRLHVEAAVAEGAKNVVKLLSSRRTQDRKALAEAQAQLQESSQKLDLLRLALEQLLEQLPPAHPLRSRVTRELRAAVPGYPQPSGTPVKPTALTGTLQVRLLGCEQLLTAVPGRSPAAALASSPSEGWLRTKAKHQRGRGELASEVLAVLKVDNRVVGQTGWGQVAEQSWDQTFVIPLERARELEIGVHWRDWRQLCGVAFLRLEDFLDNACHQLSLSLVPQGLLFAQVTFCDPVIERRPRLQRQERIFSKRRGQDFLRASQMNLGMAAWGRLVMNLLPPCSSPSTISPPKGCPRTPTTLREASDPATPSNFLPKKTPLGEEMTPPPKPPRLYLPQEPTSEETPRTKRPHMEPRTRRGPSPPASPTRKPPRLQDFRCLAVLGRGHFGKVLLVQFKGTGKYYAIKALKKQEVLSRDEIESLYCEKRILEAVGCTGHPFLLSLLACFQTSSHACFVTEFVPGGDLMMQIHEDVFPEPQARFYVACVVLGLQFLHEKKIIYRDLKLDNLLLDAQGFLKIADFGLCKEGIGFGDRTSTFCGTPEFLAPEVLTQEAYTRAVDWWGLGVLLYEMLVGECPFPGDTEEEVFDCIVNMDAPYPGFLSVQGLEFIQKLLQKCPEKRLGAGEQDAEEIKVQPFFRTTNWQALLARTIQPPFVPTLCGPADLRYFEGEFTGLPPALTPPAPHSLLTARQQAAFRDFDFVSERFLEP
Ephrin type-A receptor 7, sequence (Q15375 whole entry): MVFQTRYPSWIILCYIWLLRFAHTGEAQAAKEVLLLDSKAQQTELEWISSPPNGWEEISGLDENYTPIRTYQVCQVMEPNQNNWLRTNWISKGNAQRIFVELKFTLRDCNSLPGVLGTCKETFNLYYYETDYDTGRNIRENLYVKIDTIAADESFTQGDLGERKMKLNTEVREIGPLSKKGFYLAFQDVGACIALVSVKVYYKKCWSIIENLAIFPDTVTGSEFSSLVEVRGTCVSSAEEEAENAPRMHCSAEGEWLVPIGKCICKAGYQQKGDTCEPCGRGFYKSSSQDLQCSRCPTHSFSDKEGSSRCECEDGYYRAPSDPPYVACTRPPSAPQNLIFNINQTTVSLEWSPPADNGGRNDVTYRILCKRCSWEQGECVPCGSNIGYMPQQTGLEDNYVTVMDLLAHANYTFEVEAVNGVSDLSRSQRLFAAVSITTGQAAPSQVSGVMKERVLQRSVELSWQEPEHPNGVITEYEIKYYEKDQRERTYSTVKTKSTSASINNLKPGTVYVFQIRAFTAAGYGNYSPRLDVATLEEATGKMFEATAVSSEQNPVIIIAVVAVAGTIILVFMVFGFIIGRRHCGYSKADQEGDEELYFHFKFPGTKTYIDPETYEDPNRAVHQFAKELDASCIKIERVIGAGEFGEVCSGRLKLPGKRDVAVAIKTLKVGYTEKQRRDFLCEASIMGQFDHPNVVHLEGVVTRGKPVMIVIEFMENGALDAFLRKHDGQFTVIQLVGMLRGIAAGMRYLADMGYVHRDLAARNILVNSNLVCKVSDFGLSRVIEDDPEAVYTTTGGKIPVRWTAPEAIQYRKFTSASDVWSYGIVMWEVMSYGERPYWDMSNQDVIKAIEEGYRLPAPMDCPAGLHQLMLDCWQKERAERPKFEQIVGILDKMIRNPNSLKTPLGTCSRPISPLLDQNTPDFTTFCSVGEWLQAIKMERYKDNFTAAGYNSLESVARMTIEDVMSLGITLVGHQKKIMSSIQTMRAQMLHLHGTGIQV
Dual specificity testis-specific protein kinase 1, sequence (Q15569 whole entry): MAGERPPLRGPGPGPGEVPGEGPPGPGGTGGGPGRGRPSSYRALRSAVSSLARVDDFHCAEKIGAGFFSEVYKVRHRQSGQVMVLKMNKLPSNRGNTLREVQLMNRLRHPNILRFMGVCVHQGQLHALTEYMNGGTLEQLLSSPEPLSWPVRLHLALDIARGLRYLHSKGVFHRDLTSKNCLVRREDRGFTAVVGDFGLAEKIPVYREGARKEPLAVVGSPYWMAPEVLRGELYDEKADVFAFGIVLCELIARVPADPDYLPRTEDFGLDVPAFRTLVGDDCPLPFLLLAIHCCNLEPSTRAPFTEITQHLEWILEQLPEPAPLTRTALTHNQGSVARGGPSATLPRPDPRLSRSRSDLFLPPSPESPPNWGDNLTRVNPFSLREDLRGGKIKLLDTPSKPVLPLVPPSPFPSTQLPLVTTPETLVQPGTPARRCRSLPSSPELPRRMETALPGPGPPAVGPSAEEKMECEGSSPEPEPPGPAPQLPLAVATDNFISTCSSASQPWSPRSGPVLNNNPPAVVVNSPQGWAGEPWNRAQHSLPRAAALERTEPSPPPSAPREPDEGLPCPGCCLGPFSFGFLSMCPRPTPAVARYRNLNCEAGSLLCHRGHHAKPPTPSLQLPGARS
Myosin-10, sequence (P35580 whole entry): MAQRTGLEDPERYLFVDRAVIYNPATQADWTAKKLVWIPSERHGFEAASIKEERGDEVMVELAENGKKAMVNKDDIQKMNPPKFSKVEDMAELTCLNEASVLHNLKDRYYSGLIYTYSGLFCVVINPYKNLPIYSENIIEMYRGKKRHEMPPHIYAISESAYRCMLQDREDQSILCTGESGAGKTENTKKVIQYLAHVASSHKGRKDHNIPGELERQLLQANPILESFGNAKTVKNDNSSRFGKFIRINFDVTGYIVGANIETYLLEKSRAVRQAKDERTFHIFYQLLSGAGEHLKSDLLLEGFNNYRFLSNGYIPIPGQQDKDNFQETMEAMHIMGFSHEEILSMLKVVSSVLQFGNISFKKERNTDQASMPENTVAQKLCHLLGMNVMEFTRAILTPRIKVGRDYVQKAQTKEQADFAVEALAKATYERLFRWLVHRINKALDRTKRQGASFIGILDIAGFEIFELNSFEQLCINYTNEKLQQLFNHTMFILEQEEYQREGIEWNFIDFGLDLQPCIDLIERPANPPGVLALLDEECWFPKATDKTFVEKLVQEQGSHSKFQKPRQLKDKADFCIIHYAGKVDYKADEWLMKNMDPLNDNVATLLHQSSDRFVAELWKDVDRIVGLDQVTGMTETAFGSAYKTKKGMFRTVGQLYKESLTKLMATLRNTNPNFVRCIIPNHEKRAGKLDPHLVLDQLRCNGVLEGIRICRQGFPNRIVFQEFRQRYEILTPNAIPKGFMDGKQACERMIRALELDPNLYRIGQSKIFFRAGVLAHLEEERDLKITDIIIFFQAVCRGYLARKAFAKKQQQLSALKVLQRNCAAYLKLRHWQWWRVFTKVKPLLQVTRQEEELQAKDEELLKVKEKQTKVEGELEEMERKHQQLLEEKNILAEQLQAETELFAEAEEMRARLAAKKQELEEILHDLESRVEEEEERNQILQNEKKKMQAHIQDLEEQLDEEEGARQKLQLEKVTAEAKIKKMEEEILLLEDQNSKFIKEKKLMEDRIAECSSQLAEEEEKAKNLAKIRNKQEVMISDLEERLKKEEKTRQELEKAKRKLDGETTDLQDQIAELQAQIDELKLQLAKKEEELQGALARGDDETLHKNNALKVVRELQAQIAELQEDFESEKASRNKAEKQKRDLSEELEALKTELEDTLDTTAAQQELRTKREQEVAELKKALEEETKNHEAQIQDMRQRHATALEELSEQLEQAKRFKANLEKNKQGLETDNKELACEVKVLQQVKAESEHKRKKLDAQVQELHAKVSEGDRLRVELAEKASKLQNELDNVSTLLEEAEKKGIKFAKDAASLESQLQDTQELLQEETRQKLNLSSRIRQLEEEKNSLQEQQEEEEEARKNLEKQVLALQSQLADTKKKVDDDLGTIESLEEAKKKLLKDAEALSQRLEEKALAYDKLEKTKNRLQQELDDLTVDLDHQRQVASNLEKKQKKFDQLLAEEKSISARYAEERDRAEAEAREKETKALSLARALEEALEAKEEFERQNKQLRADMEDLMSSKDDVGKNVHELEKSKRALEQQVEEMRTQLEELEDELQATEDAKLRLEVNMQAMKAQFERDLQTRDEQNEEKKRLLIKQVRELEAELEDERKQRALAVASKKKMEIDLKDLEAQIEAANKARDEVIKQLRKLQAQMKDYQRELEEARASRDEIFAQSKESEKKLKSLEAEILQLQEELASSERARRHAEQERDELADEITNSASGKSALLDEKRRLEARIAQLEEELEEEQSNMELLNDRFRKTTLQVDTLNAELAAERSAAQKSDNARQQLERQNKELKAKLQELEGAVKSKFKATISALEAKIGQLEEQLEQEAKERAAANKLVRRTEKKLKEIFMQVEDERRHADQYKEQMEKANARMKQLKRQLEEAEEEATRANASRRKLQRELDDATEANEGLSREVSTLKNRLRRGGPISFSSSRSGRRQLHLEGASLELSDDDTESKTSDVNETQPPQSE
Serine/threonine-protein kinase PLK1, sequence (P53350 whole entry): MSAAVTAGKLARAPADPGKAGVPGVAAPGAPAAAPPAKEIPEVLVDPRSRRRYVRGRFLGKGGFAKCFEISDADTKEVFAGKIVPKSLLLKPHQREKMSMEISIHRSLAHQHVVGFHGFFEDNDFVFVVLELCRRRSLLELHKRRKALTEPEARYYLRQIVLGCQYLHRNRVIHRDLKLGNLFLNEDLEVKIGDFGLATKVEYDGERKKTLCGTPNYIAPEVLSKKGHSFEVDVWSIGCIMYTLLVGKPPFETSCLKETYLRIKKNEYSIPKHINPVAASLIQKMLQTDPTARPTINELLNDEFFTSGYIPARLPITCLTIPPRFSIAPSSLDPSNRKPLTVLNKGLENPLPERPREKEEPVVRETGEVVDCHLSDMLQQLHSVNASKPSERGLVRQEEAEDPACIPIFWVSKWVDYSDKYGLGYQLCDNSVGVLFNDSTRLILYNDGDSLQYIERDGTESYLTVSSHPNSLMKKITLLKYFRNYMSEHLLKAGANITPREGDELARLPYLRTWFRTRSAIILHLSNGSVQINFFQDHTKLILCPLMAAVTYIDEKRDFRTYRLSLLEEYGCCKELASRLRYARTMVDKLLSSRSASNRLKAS

Cn1cc(-c2ccc3nnc(C(F)(F)c4ccc5ncccc5c4)n3n2)cn1 [JNJ-38877605]
inactive: [1] > 30 µM | Ephrin type-A receptor 7 > 30 µM | [2] > 30 µM | Myosin-10 > 30 µM | [3] > 30 µM | [4] > 30 µM | [5] > 30 µM

CO[C@H]1C[C@@H]2CC[C@@H](C)[C@@](O)(O2)C(=O)C(=O)N2CCCC[C@H]2C(=O)O[C@H]([C@H](C)C[C@@H]2CC[C@@H](OCCO)[C@H](OC)C2)CC(=O)[C@H](C)/C=C(\C)[C@@H](O)[C@@H](OC)C(=O)[C@H](C)C[C@H](C)/C=C/C=C/C=C/1C [EVEROLIMUS]
inactive: [1] > 30 µM | Ephrin type-A receptor 7 > 30 µM | [2] > 30 µM | Myosin-10 > 30 µM | [3] > 30 µM | [4] > 30 µM | Obg-like ATPase 1 > 30 µM | [5] > 30 µM

CC(=O)Nc1cccc(-n2c(=O)n(C3CC3)c(=O)c3c(Nc4ccc(I)cc4F)n(C)c(=O)c(C)c32)c1 [TRAMETINIB]
inactive: [1] > 30 µM | Ephrin type-A receptor 7 > 30 µM | [2] > 30 µM | Myosin-10 > 30 µM | [3] > 30 µM | [4] > 30 µM | Obg-like ATPase 1 > 30 µM | [5] > 30 µM

Cc1ccc(NC(=O)c2ccc(CN3CC[C@H](N(C)C)C3)c(C(F)(F)F)c2)cc1Nc1nccc(-c2cncnc2)n1 [BAFETINIB]
inactive: [1] > 30 µM | Ephrin type-A receptor 7 > 30 µM | [2] > 30 µM | Myosin-10 > 30 µM | [4] > 30 µM | Obg-like ATPase 1 > 30 µM | [5] > 30 µM

COc1cc(CCc2cc(NC(=O)c3ccc(N4C[C@@H](C)N[C@@H](C)C4)cc3)n[nH]2)cc(OC)c1 [AZD-4547]
inactive: [1] > 30 µM | Ephrin type-A receptor 7 > 30 µM | [2] > 30 µM | Myosin-10 > 30 µM | [3] > 30 µM | [4] > 30 µM | [5] > 30 µM

CC[C@@H]1C(=O)N(C)c2cnc(Nc3ccc(C(=O)N[C@H]4CC[C@H](N5CCN(CC6CC6)CC5)CC4)cc3OC)nc2N1C(C)C [VOLASERTIB]
inactive: [1] > 30 µM | Ephrin type-A receptor 7 > 30 µM | [2] > 30 µM | Myosin-10 > 30 µM | [3] > 30 µM | [4] > 30 µM | Obg-like ATPase 1 > 30 µM | [5] > 30 µM

Cc1cc([C@@H](C)Nc2ccccc2C(=O)O)c2nc(N3CCOCC3)cc(=O)n2c1 [AZD-6482]
inactive: [1] > 30 µM | Ephrin type-A receptor 7 > 30 µM | [2] > 30 µM | Myosin-10 > 30 µM | [3] > 30 µM | [4] > 30 µM | Obg-like ATPase 1 > 30 µM | [5] > 30 µM

Cc1ccc(S(=O)(=O)Nc2nc3ccccc3nc2Nc2ccc3nsnc3c2)cc1
inactive: [1] > 30 µM | Ephrin type-A receptor 7 > 30 µM | [2] > 30 µM | Myosin-10 > 30 µM | [3] > 30 µM | [4] > 30 µM | Obg-like ATPase 1 > 30 µM | [5] > 30 µM

CN1CCC(CNc2ccc3ncc(-c4cccc(OC(F)(F)F)c4)n3n2)CC1 [SGI-1776]
inactive: [1] > 30 µM | Ephrin type-A receptor 7 > 30 µM | [2] > 30 µM | Myosin-10 > 30 µM | [4] > 30 µM | Obg-like ATPase 1 > 30 µM | [5] > 30 µM
